Assay results: doi:10.1101/2021.01.21.427670v1 (biorxiv, 2021)

How the values were obtained:
α4β1δ GABAA receptor [1] = biological target: T1, α4β1δ GABAA receptor (Homo sapiens, UniProt P18505+P48169, P48169:S303L); assay: cell-based; design: species or system HEK293 Flp-In
α4β1δ GABAA receptor [2] = biological target: T2, α4β1δ GABAA receptor (Homo sapiens, UniProt P18505+P48169, P18505:I289Q); assay: cell-based; design: species or system HEK293 Flp-In
α4β1δ GABAA receptor [3] = biological target: T3, α4β1δ GABAA receptor (Homo sapiens, UniProt P18505+P48169); assay: cell-based; design: species or system HEK293 Flp-In
T3 sequence (P48169 36-554): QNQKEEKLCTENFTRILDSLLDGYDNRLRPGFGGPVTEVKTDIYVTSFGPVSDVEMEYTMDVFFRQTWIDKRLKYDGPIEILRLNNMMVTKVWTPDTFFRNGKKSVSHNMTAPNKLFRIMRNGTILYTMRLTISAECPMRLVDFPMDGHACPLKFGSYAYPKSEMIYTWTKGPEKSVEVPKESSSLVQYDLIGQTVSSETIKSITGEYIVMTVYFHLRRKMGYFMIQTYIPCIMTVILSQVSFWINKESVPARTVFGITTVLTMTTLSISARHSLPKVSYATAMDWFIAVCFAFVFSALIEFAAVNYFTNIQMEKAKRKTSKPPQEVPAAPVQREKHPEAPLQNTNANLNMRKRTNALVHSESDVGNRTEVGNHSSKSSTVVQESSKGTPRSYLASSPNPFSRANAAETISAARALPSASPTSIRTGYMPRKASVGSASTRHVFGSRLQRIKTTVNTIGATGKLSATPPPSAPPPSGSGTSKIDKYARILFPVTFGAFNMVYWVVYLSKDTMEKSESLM
T3 sequence (P18505 26-474): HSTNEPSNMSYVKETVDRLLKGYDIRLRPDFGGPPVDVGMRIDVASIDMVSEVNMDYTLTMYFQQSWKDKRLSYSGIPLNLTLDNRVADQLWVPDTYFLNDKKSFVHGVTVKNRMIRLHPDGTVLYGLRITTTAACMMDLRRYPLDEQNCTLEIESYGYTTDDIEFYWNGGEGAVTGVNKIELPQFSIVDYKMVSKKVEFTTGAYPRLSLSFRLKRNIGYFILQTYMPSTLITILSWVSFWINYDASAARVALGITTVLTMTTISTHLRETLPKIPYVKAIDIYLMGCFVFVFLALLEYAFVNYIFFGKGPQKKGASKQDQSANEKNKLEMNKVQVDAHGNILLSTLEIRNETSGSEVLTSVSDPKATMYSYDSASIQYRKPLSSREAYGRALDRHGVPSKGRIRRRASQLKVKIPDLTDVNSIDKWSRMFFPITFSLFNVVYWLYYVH
T3 sequence (O14764 25-452 partner): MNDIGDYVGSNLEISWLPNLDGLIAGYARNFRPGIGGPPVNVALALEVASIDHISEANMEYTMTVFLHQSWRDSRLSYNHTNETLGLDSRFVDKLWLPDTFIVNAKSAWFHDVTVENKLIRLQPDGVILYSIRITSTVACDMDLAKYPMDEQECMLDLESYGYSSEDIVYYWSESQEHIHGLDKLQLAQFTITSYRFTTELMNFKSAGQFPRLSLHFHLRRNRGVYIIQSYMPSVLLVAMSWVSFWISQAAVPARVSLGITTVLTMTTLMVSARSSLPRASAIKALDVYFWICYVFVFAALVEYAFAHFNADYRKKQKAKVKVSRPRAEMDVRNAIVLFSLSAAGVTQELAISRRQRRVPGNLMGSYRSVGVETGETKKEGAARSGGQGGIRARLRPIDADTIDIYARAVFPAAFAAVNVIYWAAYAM

α4β1δ GABAA receptor [4] = biological target: T3, α4β1δ GABAA receptor; assay: FLIPR membrane potential; assay type: cell-based
α4β1δ GABAA receptor [5] = biological target: T2, α4β1δ GABAA receptor; assay: FLIPR membrane potential; assay type: cell-based
α4β1δ GABAA receptor [6] = biological target: T1, α4β1δ GABAA receptor; assay: FLIPR membrane potential; assay type: cell-based

T1 sequence (P48169 36-554 S303L): as the sequence (P48169 36-554) above, with S268L counted along it
T1 sequence (P18505 26-474): as the sequence (P18505 26-474) above
T1 sequence (O14764 25-452 partner): as the sequence (O14764 25-452 partner) above
T2 sequence (P48169 36-554): as the sequence (P48169 36-554) above
T2 sequence (P18505 26-474 I289Q): as the sequence (P18505 26-474) above, with I264Q counted along it
T2 sequence (O14764 25-452 partner): as the sequence (O14764 25-452 partner) above

CCOC(=O)Nc1ccc(NCc2c(C)cc(C)cc2C)cc1N [AA29504, [2-amino-4-(2,4,6-trimethylbenzylamino)-phenyl]-carbamic acid ethyl ester]
EC50 (α4β1δ GABAA receptor [1]): 0.25 µM
EC50 (α4β1δ GABAA receptor [2]): 0.76 µM
EC50 (α4β1δ GABAA receptor [3]): 0.55 µM

CCOC(=O)c1cncn1[C@H](C)c1ccccc1 [etomidate, (R)-1-(1-phenylethyl)-1H-imidazole-5-carboxylic acid ethyl ester]
EC50 (α4β1δ GABAA receptor [4]): 7.8 µM
EC50 (α4β1δ GABAA receptor [5]): 9.3 µM
EC50 (α4β1δ GABAA receptor [6]): 6.2 µM
